Experimental data as given in US20050063940A1, “Bioadhesive agent” (priority 2002, published 2005).

Experiment: Cross-over study of drug A blood levels with 1% Softigen or 1% Labrasol formulation
Parameters: species or system rabbits
Settings: rabbit, in vivo
Method: In a cross-over study, 4 rabbits received drug A in a formulation containing 1% Softigen® (Sasol GmbH, Germany) (n=4) and 1% Labrasol® (Gattefosse, France) (n=4) and were sampled for blood samples after 0, 2, 5, 10, 15, 30, 45 and 60 min.

A tmax of 6 min was found for “macrogol-6-glycerol-caprylocaprate [PEG6-CCG]” in this work.
